Measured values published in ChEMBL document CHEMBL3044929, “Insecticidal activity of sesquiterpenes skeleton synthesized by the conventional Robinson annulations reaction on Drosophila melanogaster” (2013).

Columns and labels:
Spodoptera frugiperda = assay: Insecticidal activity against Spodoptera frugiperda (fall armyworm) larvae assessed as mortality at 25 ppm; assay type: functional
Drosophila melanogaster [1] = assay: Insecticidal activity against first-instar larval stage of Drosophila melanogaster fed with artificial diet containing compound assessed as mortality at 37.6 umol/ml measured after 120 hr; assay type: functional
Drosophila melanogaster [2] = assay: Insecticidal activity against first-instar larval stage of Drosophila melanogaster fed with artificial diet containing compound assessed as mortality at 37.6 umol/ml measured after 144 hr; assay type: functional
Drosophila melanogaster [3] = assay: Insecticidal activity against first-instar larval stage of Drosophila melanogaster fed with artificial diet containing compound assessed as mortality at 8.3 umol/ml measured after 120 hr; assay type: functional
Drosophila melanogaster [4] = assay: Insecticidal activity against first-instar larval stage of Drosophila melanogaster fed with artificial diet containing compound assessed as mortality at 18.3 umol/ml measured after 120 hr; assay type: functional
Drosophila melanogaster [5] = assay: Insecticidal activity against first-instar larval stage of Drosophila melanogaster fed with artificial diet containing compound assessed as mortality at 8.3 umol/ml measured after 144 hr; assay type: functional
Drosophila melanogaster [6] = assay: Insecticidal activity against first-instar larval stage of Drosophila melanogaster fed with artificial diet containing compound assessed as mortality at 18.3 umol/ml measured after 144 hr; assay type: functional
Drosophila melanogaster [7] = assay: Insecticidal activity against first-instar larval stage of Drosophila melanogaster fed with artificial diet containing compound assessed as mortality at 18.3 umol/ml measured after 72 hr (reference value: 0%); assay type: functional
Drosophila melanogaster [8] = assay: Insecticidal activity against first-instar larval stage of Drosophila melanogaster fed with artificial diet containing compound assessed as mortality at 37.6 umol/ml measured after 48 hr (reference value: 0%); assay type: functional
Drosophila melanogaster [9] = assay: Insecticidal activity against first-instar larval stage of Drosophila melanogaster fed with artificial diet containing compound assessed as mortality at 18.3 umol/ml measured after 96 hr; assay type: functional
Drosophila melanogaster [10] = assay: Insecticidal activity against first-instar larval stage of Drosophila melanogaster fed with artificial diet containing compound assessed as mortality at 37.6 umol/ml measured after 24 hr (reference value: 0%); assay type: functional
Drosophila melanogaster [11] = assay: Insecticidal activity against first-instar larval stage of Drosophila melanogaster fed with artificial diet containing compound assessed as mortality at 37.6 umol/ml measured after 72 hr (reference value: 3.33 +/-0.33%); assay type: functional
Drosophila melanogaster [12] = assay: Insecticidal activity against first-instar larval stage of Drosophila melanogaster fed with artificial diet containing compound assessed as mortality at 8.3 umol/ml measured after 96 hr; assay type: functional
Drosophila melanogaster [13] = assay: Insecticidal activity against first-instar larval stage of Drosophila melanogaster fed with artificial diet containing compound assessed as mortality at 8.3 umol/ml measured after 24 hr (reference value: 0%); assay type: functional
Drosophila melanogaster [14] = assay: Insecticidal activity against first-instar larval stage of Drosophila melanogaster fed with artificial diet containing compound assessed as mortality at 18.3 umol/ml measured after 48 hr (reference value: 0%); assay type: functional
Drosophila melanogaster [15] = assay: Insecticidal activity against first-instar larval stage of Drosophila melanogaster fed with artificial diet containing compound assessed as mortality at 8.3 umol/ml measured after 48 hr (reference value: 0%); assay type: functional
Drosophila melanogaster [16] = assay: Insecticidal activity against first-instar larval stage of Drosophila melanogaster fed with artificial diet containing compound assessed as mortality at 8.3 umol/ml measured after 72 hr (reference value: 0%); assay type: functional
Drosophila melanogaster [17] = assay: Insecticidal activity against first-instar larval stage of Drosophila melanogaster fed with artificial diet containing compound assessed as mortality at 18.3 umol/ml measured after 24 hr (reference value: 0%); assay type: functional
Drosophila melanogaster [18] = assay: Insecticidal activity against first-instar larval stage of Drosophila melanogaster fed with artificial diet containing compound assessed as mortality at 37.6 umol/ml measured after 96 hr; assay type: functional
Drosophila melanogaster [19] = assay: Insecticidal activity against first-instar larval stage of Drosophila melanogaster fed with artificial diet containing compound assessed as mortality measured after 72 hr; assay type: functional; conditions: read-out: LD50 (the source's name)
[20] = target: Acetylcholinesterase (Spodoptera litura) (UniProt C5IU80); assay: Inhibition of acetylcholinesterase in Spodoptera frugiperda (fall armyworm) at 15 ppm
Drosophila melanogaster [21] = assay: Insecticidal activity against first-instar larval stage of Drosophila melanogaster fed with artificial diet containing compound assessed as mortality measured after 24 hr; assay type: functional; conditions: read-out: LD50 (the source's name)

Acetylcholinesterase (Spodoptera litura), sequence (C5IU80 as listed by the source): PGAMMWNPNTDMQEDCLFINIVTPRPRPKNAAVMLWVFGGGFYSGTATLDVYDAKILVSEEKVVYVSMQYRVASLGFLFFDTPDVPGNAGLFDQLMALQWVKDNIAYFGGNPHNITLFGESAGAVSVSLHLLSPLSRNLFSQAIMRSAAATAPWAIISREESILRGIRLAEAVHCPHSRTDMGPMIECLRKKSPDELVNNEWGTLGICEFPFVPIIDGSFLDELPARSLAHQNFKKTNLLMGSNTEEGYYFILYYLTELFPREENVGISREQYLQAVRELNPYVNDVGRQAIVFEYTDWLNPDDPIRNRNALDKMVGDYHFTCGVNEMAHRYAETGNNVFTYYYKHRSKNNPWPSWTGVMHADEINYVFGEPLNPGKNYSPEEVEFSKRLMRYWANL

| SMILES | mortality (Drosophila melanogaster [1]) | mortality (Drosophila melanogaster [2]) | mortality (Drosophila melanogaster [3]) | mortality (Drosophila melanogaster [4]) | mortality (Drosophila melanogaster [5]) | mortality (Drosophila melanogaster [6]) | mortality (Drosophila melanogaster [7]) | mortality (Drosophila melanogaster [8]) | mortality (Drosophila melanogaster [9]) | mortality (Drosophila melanogaster [10]) | mortality (Drosophila melanogaster [11]) | mortality (Drosophila melanogaster [12]) | mortality (Drosophila melanogaster [13]) | mortality (Drosophila melanogaster [14]) | mortality (Drosophila melanogaster [15]) | mortality (Drosophila melanogaster [16]) | mortality (Drosophila melanogaster [17]) | mortality (Drosophila melanogaster [18]) | also measured |
| --- | --- | --- | --- | --- | --- | --- | --- | --- | --- | --- | --- | --- | --- | --- | --- | --- | --- | --- | --- |
| CC(=O)OC[C@H]1C[C@@H](OC(C)=O)[C@@H](OC(C)=O)[C@@]2(C)[C@H](OC(=O)c3ccccc3)[C@@H](OC(C)=O)[C@@H]3[C@H](OC(C)=O)[C@]12OC3(C)C | – | – | – | – | – | – | – | – | – | – | – | – | – | – | – | – | – | – | mortality at 25 ppm (Spodoptera frugiperda): 100% |
| CC1=C2C[C@H](C(C)(O)CO)CC[C@@]2(C)CCC1=O (stereo not given in full) | 23% | 23% | 10% | 23% | 10% | 23% | 0% | 20% | 23% | 20% | 20% | 10% | 10% | 10% | 10% | 10% | 10% | 23% | – |
| C=C(C)[C@@H]1CC[C@@]2(C)CC[C@@H](O)C(C)=C2C1 [3ALPHA-HYDROXY-CYPERONE] | 10% | 10% | 0% | 3.3% | 0% | 6.6% | 3.3% | 6.7% | 3.3% | 0% | 6.7% | 0% | 0% | 0% | 0% | 0% | 0% | 10% | – |
| C=C(C)[C@@H]1CC[C@]2(C)CCC(=O)C[C@]2(O)C1 [5-HYDROXY-14-NOREUDESM-11-EN-3-ONE] | 23.3% | 23.3% | 16.6% | 20% | 16.6% | 20% | 13.3% | 13.3% | 20% | 13% | 16.6% | 6.6% | 0% | 6.7% | 6.7% | 6.7% | 3.3% | 23.3% | – |
| C=C(C)[C@@H]1CC[C@@]2(C)CC[C@H](O)C(C)=C2C1 [3BETA-HYDROXY-CYPERONE] | – | – | – | – | – | – | 73.3% | 96% | – | 80% | 100% | – | 20% | 73.3% | 50% | 50% | 36.7% | – | LC50 (Drosophila melanogaster [19]): 9.36 mM |
| C=C(C)[C@@H]1CC[C@]2(C)CCC(=O)C(C)=C2C1 [(-)-10-EPI-ALPHA-CYPERONE] | – | – | – | – | – | – | 0% | 0.11% | – | 0% | 0.11% | – | 0% | 0% | 0% | 0% | 0% | – | – |
| CC(=O)OC[C@H]1C[C@@H](OC(C)=O)[C@@H](OC(C)=O)[C@@]2(C)[C@H](OC(=O)c3ccco3)[C@@H](OC(C)=O)[C@@H]3[C@H](OC(C)=O)[C@]12OC3(C)C | – | – | – | – | – | – | – | – | – | – | – | – | – | – | – | – | – | – | inhibition [20]: 100%; mortality at 25 ppm (Spodoptera frugiperda): 100% |
| C=C(C)[C@@H]1CC[C@@]2(C)CCC(O)C(C)=C2C1 (mixture of isomers) | – | – | – | – | – | – | 100% | 96% | – | 90% | 100% | – | 50% | 86.7% | 70% | 100% | 70% | – | LC50 (Drosophila melanogaster [21]): 8.78 mM |
| C=C(C)[C@@H]1CC[C@]2(C)CCC(=O)[C@H](C)[C@]2(O)C1 [5ALPHA-HYDROXY-14-EUDESM-11-EN-3-ONE] | 36.6% | 40% | 16.7% | 20% | 23.3% | 26.7% | 13.3% | 0% | 20% | 0% | 33.3% | 16.7% | 0% | 0% | 0% | 0% | 0% | 36.6% | LC50 (Drosophila melanogaster [19]): 42.6 mM |
| C=C(C)[C@@H]1CC[C@@]2(C)CCC(=O)C(C)=C2C1 [ALPHA-CYPERONE] | – | – | – | – | – | – | 100% | 100% | – | 96.7% | 100% | – | 70% | 100% | 76.6% | 100% | 83% | – | LC50 (Drosophila melanogaster [21]): 4.99 mM |
